Reference: patent US12220465B2, “Compositions and methods for targeted treatment and imaging of cancer or tumors” (Washington University, priority 2018, dated 2025)

Key:
EPCs [1] = test: MTT survival assay of EPCs treated with agent; format: cell-based; details: 48 hours; for effect on survival of EPCs: increasing concentrations
Protocol: (§1) Anticancer agents have preferential cytotoxic effects on cancer cells compared to non-malignant cells (such as EPCs). Therefore we tested the effect of BTZ (anti-cancer drug) on the survival of malignant MM cells (MM1s and H929) and on EPCs, in which cells were treated with increasing concentrations of Bortezomib, and the killing effect was evaluated after 48 hours using MTT assay (FIGS. 8A and B). Also EPCs were treated with and without high-dose of BTZ (50 nM) and we measured the in vitro migration of the EPCs towards MM-conditioned media, using a Boyden chamber migration assay, and the number of migrating EPCs was analyzed by flow cytometry (FIG. 8C).
Prodrugs such as TC and BPA are inert agents that are not supposed to have effect by them selves on cancer or normal cell survival, but when activated using positron emission and neutrons, respectively, these agents become active drugs and kill the cell that they reside in and adjacent cells next to it. We tested the effect of TC and BPA (prodrugs) on the survival of EPCs, in which cells were treated with increasing concentrations of these, and the killing effect was evaluated after 48 hours using MTT assay (FIGS. 9A and 10A). […] Also EPCs were treated with and without increasing doses of TC and BPA and we measured the in vitro migration of the EPCs towards MM-conditioned media, using a Boyden chamber migration assay, and the number of migrating EPCs was analyzed by flow cytometry (FIGS. 9C and 10C).
These agents have no cytotoxicity effect, to confirm that we tested the effect of LS-542, (as a model of an imaging agent) on survival of EPCs, in which cells were treated with increasing concentrations of these, and the killing effect was evaluated after 48 hours using MTT assay (FIG. 11A). […] Also EPCs were treated with and without increasing doses of LS-542 and we measured the in vitro migration of the EPCs towards MM-conditioned media, using a Boyden chamber migration assay, and the number of migrating EPCs was analyzed by flow cytometry (FIG. 11C).

EPCs [2] = test: Boyden chamber migration of agent-treated EPCs towards MM-conditioned media; format: cell-based; details: for effect on migration of EPCs to tumor: increasing doses, towards MM-conditioned media
Protocol: as §1
Prodrugs such as TC and BPA are inert agents that are not supposed to have effect by them selves on cancer or normal cell survival, but when activated using positron emission and neutrons, respectively, these agents become active drugs and kill the cell that they reside in and adjacent cells next to it. We tested the effect of TC and BPA (prodrugs) on the survival of EPCs, in which cells were treated with increasing concentrations of these, and the killing effect was evaluated after 48 hours using MTT assay (FIGS. 9A and 10A). And to confirm the loading of EPCs with TC and BPA, we treated the EPCs with increasing doses of TC and BPA, digested the cells with nitric acid, and used ICP-MS to detect the level of Titanium and boron in the EPCs, respectively (FIGS. 9B and 10B). Also EPCs were treated with and without increasing doses of TC and BPA and we measured the in vitro migration of the EPCs towards MM-conditioned media, using a Boyden chamber migration assay, and the number of migrating EPCs was analyzed by flow cytometry (FIGS. 9C and 10C).
These agents have no cytotoxicity effect, to confirm that we tested the effect of LS-542, (as a model of an imaging agent) on survival of EPCs, in which cells were treated with increasing concentrations of these, and the killing effect was evaluated after 48 hours using MTT assay (FIG. 11A). And to confirm the loading of EPCs with LS-542, we treated the EPCs with increasing doses of LS-542, and the amount of labeling was measure by the mean-flurescence intensity of the dye by flow cytometry (FIG. 11B). Also EPCs were treated with and without increasing doses of LS-542 and we measured the in vitro migration of the EPCs towards MM-conditioned media, using a Boyden chamber migration assay, and the number of migrating EPCs was analyzed by flow cytometry (FIG. 11C).

[3] = tested on: malignant MM cells (MM1s and H929); test: MTT survival assay of malignant MM cells treated with Bortezomib; format: cell-based; details: Homo sapiens, 48 hours, read-out: IC50, killing of myeloma cells
Protocol: as §1

EPCs [4] = details: calcein-UV and PI, flow cytometry
Protocol: The effect of Tc on the cell vitality/viability by staining the cells with viability dye (calcein-UV) and propidium iodide (PI) and analyzing by flow cytometry was tested.

Row | SMILES | effect on survival of EPCs (EPCs [1]) | effect on migration of EPCs to tumor (EPCs [2]) | BTZ concentration up to which EPCs are not sensitive (survival) (EPCs [1]) | effect of loading on migration of EPCs towards cancer cells (EPCs [2]; BTZ 50 nM for 2 hrs, MM-conditioned media) | IC50 [3] | concentration up to which Tc is not toxic to EPCs (EPCs [4]) | effect on migration of EPCs to conditioned MM media (EPCs [2]; same concentration range, up to 150 μM)
1 | N[C@@H](Cc1ccc(B(O)O)cc1)C(=O)O [BPA, 4-Borono-L-phenylalanine] | no effect on the survival | no effect | – | – | – | – | –
2 | CC(C)C[C@H](NC(=O)[C@H](Cc1ccccc1)NC(=O)c1cnccn1)B(O)O [BTZ, Bortezomib] | – | – | up to 50 nM | did not affect the migration of EPCs | 5 nM | – | –
3 | [Cl-].[Cl-].[Ti+4].c1cc[cH-]c1.c1cc[cH-]c1 [Titanocene] | no effect on the survival | no effect | – | – | – | up to 150 μM | did not affect the migration of EPCs
